Measured values as given in article PMC10115881, “Disrupting the α-synuclein-ESCRT interaction with a peptide inhibitor mitigates neurodegeneration in preclinical models of Parkinson’s disease” (Nature Communications, 2023).
No end group written: not given here. *: point of attachment. FITC = O=C1OC2(c3ccc(O)cc3Oc3cc(O)ccc32)c2ccc(NC(=S)*)cc21

Tests used:
A53T a-syn = A53T a-syn protein level in HEK293 cells by immunoblot; assay type: cell-based, human
Description: Infected or transfected cells were scraped from six-well dishes and lysed with lysis buffer (50 mM Tris-HCl pH 7.4, 1% Nonidet P-40, 150 mM NaCl, 1 mM EDTA, 1× protease inhibitor mixture (Sigma)) for 30 min at 4 °C. The insoluble pellet was removed following a 10,000 rpm spin for 5 min at 4 °C. Lysates were analyzed by SDS-PAGE/immunoblot using 4–20% Mini-PROTEAN Tris-glycine gels (Bio-Rad), transferred to polyvinylidene fluoride (PVDF) membranes, and blocked in 5% milk containing PBS-Tween-20 (0.1%) for 1 h. PVDF membranes were then incubated with specified primary antibodies followed by incubation with horseradish peroxidase-conjugated secondary antibodies (anti-mouse HRP-linked, Cell Signaling, catalog #7076, 1:5000; anti-rabbit HRP-linked, Cell Signaling, catalog #7074, 1:5000) and detected using enhanced chemiluminescence (GE Healthcare). Anti-a-syn antibody (clone 42) was obtained from BD Biosciences (catalog #610787, 1:1000). Anti-LAMP1 antibody was obtained from Abcam (catalog #ab24170, 1:500). Anti-beta-actin antibody was obtained from Cell Signaling (13E5) (catalog #4970, 1:1000). Anti-CD63 antibody was obtained from R&D Systems (catalog #MAB50482-SP, 1:1000).

[1] = system: A53T a-syn expressing HEK293 cells; experiment: Cell Titer-Glo cell viability, A53T a-syn expressing cells; assay type: cell-based, human; conditions: A53T a-syn cells
Description: Oligonucleotides encoding the specific peptides were synthesized and individually cloned into the pLJM1 nGFP lentiviral vector. HEK293T cells were infected with individual constructs, and cell viability was assessed using Cell Titer-Glo luminescent assay (Promega) at 72 h post infection.
Cells were trypsinized from subconfluent cultures as described earlier, suspended in culture media, and then seeded into triplicate wells of a 96-well plate (100 µl/well) at a density of 1.5 × 10^4 cells per well with standard culture conditions of 5% CO2 at 37 °C. Cells were infected with lentivirus expressing peptide at a MOI of 5 for 72 h or transfected with plasmid for 72 h. Cell Titer-Glo reagent was added to each well (30 µL), according to the manufacturer’s protocol and […].

VPS4 = conditions: motif-domain interaction; read-out: CHMP2B-VPS4 interaction affinity; cited from earlier work
From the text: CHMP2B has been reported to bind to Vacuolar Protein Sorting 4 (VPS4), an AAA-type adenosine triphosphatase. This interaction is mediated by the C-terminal MIM on CHMP2B and a Microtubule Interacting and Trafficking (MIT) domain on VPS4. […] However, we also noted that many CHMP proteins can self-interact and have been reported to multimerize, which may contribute to their function. In particular, CHMP2B can self-interact[30] and is thought to polymerize at the budding of membranes during endosome formation. ...

[2] = target: T1, purified VPS4B (Vacuolar Protein Sorting 4) (UniProt O75351 1-444); experiment: FP
T1 chain: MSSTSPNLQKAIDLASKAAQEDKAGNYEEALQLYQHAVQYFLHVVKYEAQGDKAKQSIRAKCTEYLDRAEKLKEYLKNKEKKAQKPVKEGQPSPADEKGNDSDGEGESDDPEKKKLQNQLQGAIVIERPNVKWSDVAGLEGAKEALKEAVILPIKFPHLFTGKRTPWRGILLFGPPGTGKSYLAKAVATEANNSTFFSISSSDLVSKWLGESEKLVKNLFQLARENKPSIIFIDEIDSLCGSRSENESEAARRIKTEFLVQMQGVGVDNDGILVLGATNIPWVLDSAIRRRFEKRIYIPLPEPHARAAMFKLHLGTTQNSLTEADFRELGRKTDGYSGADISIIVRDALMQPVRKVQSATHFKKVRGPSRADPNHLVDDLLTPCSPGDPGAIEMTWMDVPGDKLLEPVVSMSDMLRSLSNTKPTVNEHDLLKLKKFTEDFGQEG

[3] = target: T2, purified VPS4B (Vacuolar Protein Sorting 4) (UniProt O75351 1-444); experiment: not stated; 'our affinity measurements' of PDpep1.3 with VPS4 (Fig. S1G); conditions: both partners purified
T2 construct: VPS4B expressed as a His-tagged Sumo construct in a pRSet B vector; The results speak of 'VPS4'; VPS4B is the only VPS4 protein whose purification is described; source: E. coli Overexpress C41, purified (Ni-NTA)
T2 sequence (looked up): T1 chain

[4] = target: T3, purified recombinant CHMP2B (UniProt Q9UQN3 1-213); experiment: fluorescence polarisation; FITC-peptide constant at 50 nM, CHMP2B serially diluted 1:1 from 30 μM; 50 mM Na phosphate pH 5.5 or 20 mM Na acetate pH 5.5, 0.5 mM TCEP, 0.005% Triton-X-100; 30 min at room temperature; conditions: both partners purified
T3 construct: CHMP2B from the vector pET-DEST42 CHMP2B; eluted as a 26 kDa monomer; Removal of tags is not described; source: E. coli Overexpress C41, inclusion bodies, purified (Ni-NTA in guanidine HCl, dialysis, SEC)
T3 sequence (Q9UQN3 whole entry): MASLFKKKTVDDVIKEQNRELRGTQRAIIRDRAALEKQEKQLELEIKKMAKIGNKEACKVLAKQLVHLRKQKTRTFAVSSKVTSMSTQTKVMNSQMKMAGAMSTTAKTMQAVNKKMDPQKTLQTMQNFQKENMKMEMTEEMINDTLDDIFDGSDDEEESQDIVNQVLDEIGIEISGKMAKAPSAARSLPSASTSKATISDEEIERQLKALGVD

CHMP2B: CHarged Multivesicular body Protein 2B, full-length
Effect on A53T a-syn protein level (A53T a-syn): reduces a-syn levels
Effect on cell survival/viability [1]: rescues a-syn cytotoxicity
Kd (VPS4): 178 µM

B1: FITC-labeled PDpep1.3 peptide (peptide)
peptide: {FITC}-DEEIERQLKALG
notes: stretch of the C-terminal region (MIM) of CHMP2B; also called FITC-PDpep1.3; source: synthetic peptide (LifeTein)
Kd [2]: ~200 µM
Kd [3]: > 100 µM
Kd [4]: 1.8 µM
